Experimental findings from patent US9353090B2, “Heterocyclic carboxylic acids as activators of soluble guanylate cyclase” (Boehringer Ingelheim International GmbH, priority 2014, dated 2016) are described below.

Data set [1] can be described thus: Human liver microsome (HLM) metabolic stability assay. Type of data set: in vitro ADME. As to conditions: human liver microsomes. A digest of the protocol:
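Remaining parent measured by LC/MS/MS (ESI, MRM) at 5, 15, 30 and 60 min relative to 0 min. Incubation: 1 uM compound, HLMs, NADPH-started, 37° C., 60 min total, single replicate. Slope of ln(% remaining) gives t1/2 = 0.693/slope, then CLint, CLh and % Qh.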

Data set [2] addresses human soluble guanylate cyclase alpha 1 and beta 1 subunits (sGC) (Homo sapiens (Human), UniProt Q02108+Q02153). Kind of data set: sGC cellular activator assay (cGMP, HTRF), in the presence and absence of 50% human serum. Type of data set: cell-based. As to conditions: CHO cells stably expressing human sGC alpha 1/beta 1, preincubated with 40 microM ODQ; cGMP by HTRF; Table 2 does not state whether with or without 50% human serum. The method in brief:
(§1)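 First, CHO-sGC (human α1β1) cells get 1 h ODQ at 40 microM with IBMX and 0.1% BSA. Finally, cGMP is quantified by HTRF and EC50 computed.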

The conditions of data set [3]: 24 h.
Protocol: (§2) Solubility is measured by the following method.
(§3) 100 uL, 10 mM DMSO stock solution of each compound is prepared in a 96 well plate format. The experiment is done in single determination at 3 pH values (2.2, 4.5 and 6.8). For each pH and one reference, 40 uL of each compound is needed.
(§4) McIlvaine pH 2.2: To 2.076 g citric acid monohydrate and 0.043 g Na2HPO4×2H2O add 100 ml deionized water
(§5) McIlvaine pH 4.5: To 1.166 g citric acid monohydrate and 1.585 g Na2HPO4×2H2O add 100 ml deionized water
(§6) McIlvaine pH 6.8: To 0.476 g citric acid monohydrate and 2.753 g Na2HPO4×2H2O add 100 ml deionized water
(§7) With a suitable liquid handling device (Multipette® or a liquid handler) 390 uL of each buffer solution and 10 uL of compound is added to each well of a 96 deep well plate. The plates are covered firmly and shaken for 24 h on an over head shaker (at 54 RPM) at room temperature. The DMSO content in the final buffer is 2.5% v/v.
(§8) After 24 h the plates are centrifuged to remove droplets on the lid before opening (for ˜5 min at 2500 RPM).
(§9) The filtration is done under vacuum with Millipore 96 well filter plate. Filtrate is collected in a deep well plate and transferred to a suitable plate for UPLC analysis.
(§10) The reference plate is prepared by adding 10 uL of compound to 390 uL of 50:50 acetonitrile/water in a 96 deep well plate and transferred to a suitable plate for UPLC analysis. Wells are checked visually for precipitation, any presence noted under comments in reported results.
(§11) The samples are measured with UPLC-UV using the chromatographic method described below.
(§12) Waters Empower®2 software is used for generating Sample Sets (according to the plate layout), Sample Set Methods and Instrument Methods.
(§13) One Sample Set comprises the methods for three 96 well plates (one reference plate and two sample plates, and includes one Sample Set Method and one Instrument Method).
Data Processing and Analysis
(§14) The UV chromatograms collected at 254 nm are integrated and processed.
(§15) It is assumed that the compound is completely dissolved in the reference solution (50:50 acetonitrile/water)
Data set [4] deals with human soluble guanylate cyclase alpha 1 and beta 1 subunits (sGC) (Homo sapiens (Human), UniProt Q02153). Kind of data set: sGC cellular activator assay (cGMP, HTRF), in the presence and absence of 50% human serum. As to conditions: CHO cells stably expressing human sGC alpha 1/beta 1, preincubated with 40 microM ODQ; cGMP by HTRF; Table 2 does not state whether with or without 50% human serum. The format is cell-based. The method in brief:
as §1
Background: Time-resolved FRET reads energy transfer from a long-lived donor to a nearby acceptor.

Data set [5] is described as follows: physchem. The settings on record: kinetic from dmso stock.
Protocol: as §2, §3, §4, §5, §6, §7, §8, §9, §10, §11, §12, §13
Data Processing and Analysis
as §14, §15
Where [6] appears, read: pH 2.2, aqueous buffer, Solubility (pH 2.2).
[7] abbreviates: pH 4.5, aqueous buffer, Solubility (pH 4.5).
Setting [8] is: pH 6.8, aqueous buffer, Solubility (pH 6.8).

pEC50: −log10 of the molar value. ≈ marks a conversion by molar mass, not a printed value.

Sequence of human soluble guanylate cyclase alpha 1 and beta 1 subunits (sGC) (Homo sapiens (Human), UniProt Q02108+Q02153) (Q02108 whole entry partner): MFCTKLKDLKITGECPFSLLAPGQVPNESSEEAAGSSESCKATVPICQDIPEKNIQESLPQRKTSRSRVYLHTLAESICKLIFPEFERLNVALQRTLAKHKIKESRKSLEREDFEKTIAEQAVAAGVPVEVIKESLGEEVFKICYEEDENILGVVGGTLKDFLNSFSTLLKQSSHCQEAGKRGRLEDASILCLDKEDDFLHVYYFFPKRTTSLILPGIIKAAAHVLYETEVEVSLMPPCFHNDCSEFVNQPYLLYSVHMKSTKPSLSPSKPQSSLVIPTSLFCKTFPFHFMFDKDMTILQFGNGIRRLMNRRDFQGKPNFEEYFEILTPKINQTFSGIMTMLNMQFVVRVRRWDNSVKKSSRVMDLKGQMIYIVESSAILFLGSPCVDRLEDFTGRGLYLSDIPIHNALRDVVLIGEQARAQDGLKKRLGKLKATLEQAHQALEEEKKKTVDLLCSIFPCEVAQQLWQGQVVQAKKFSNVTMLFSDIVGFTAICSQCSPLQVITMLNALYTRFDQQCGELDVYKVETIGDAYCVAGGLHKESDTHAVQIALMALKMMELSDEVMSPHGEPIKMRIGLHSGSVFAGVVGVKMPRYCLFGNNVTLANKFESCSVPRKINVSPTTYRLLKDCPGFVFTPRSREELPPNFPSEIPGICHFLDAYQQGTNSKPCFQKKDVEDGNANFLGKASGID
Sequence of human soluble guanylate cyclase alpha 1 and beta 1 subunits (sGC) (Homo sapiens (Human), UniProt Q02108+Q02153) (Q02153 whole entry): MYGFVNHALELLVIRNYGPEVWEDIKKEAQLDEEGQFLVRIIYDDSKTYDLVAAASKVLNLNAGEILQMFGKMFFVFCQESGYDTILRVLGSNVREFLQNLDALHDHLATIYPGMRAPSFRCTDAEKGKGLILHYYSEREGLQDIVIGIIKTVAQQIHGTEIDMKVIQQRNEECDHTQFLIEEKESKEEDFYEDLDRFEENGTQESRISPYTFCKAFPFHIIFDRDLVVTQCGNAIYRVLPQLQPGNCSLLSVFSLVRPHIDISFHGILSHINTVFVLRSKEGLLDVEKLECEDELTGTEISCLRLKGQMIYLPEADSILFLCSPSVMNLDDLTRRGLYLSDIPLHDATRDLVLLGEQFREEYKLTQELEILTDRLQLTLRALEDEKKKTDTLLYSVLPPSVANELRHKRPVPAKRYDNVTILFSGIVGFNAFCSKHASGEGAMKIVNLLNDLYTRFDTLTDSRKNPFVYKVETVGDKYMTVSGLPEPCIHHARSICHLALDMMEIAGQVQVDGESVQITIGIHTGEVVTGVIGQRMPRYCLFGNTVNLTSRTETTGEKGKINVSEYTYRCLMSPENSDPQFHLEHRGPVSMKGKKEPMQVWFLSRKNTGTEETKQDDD
Sequence of human soluble guanylate cyclase alpha 1 and beta 1 subunits (sGC) (Homo sapiens (Human), UniProt Q02153) (Q02108 whole entry partner): as the sequence (Q02108 whole entry partner) above
Sequence of human soluble guanylate cyclase alpha 1 and beta 1 subunits (sGC) (Homo sapiens (Human), UniProt Q02153) (Q02153 whole entry): as the sequence (Q02153 whole entry) above

The term pEC50 denotes the negative decadic logarithm of the EC50, by convention in mol/L. The low end stands for a high EC50, the high end for a low EC50. As to `Cc1cc(COc2c(C)cccc2-c2cccc(N3C[C@@H]4C[C@]4(C(=O)O)C3)n2)cc2c1CN(C1CCOC1)CC2` (stereo partly shown) [Compound 25], in data set [1], the “Metabolic stability (Qh %), % hepatic blood flow” value (“Metabolic stability (Qh %)” below) was below 24%. The pEC50 in data set [2] was 7.80. Moreover, in data set [3], the “Solubility (pH 2.2)” value turned out to be 100 μg/mL, the “Solubility (pH 4.5)” value came to 89 μg/mL and the “Solubility (pH 6.8)” value is listed as 62 μg/mL.
On to `Cc1c(COc2ccccc2-c2cccc(N3CC[C@@]4(C(=O)O)C[C@H]4C3)n2)ccc2c1CCN(C1CCOCC1)C2` [Compound 3], for which the “Metabolic stability (Qh %)” value in data set [1] is below 24%. In data set [4], this compound had a pEC50 of 8.52. In data set [3], the “Solubility (pH 2.2)” value is 140 μg/mL, the “Solubility (pH 4.5)” value is listed as 120 μg/mL and the “Solubility (pH 6.8)” value is listed as 60 μg/mL.
Turning to `Cc1cc(COc2c(C)cccc2-c2csc(N3CC[C@@]4(C(=O)O)C[C@H]4C3)n2)cc2c1CN(CC1COCCO1)CC2` (stereo partly shown) [Compound 93], the “Metabolic stability (Qh %)” value in data set [1] is recorded as below 24%. The pEC50 in data set [2] was 8.70. Moreover, in data set [3], the “Solubility (pH 2.2)” value is reported as 140 μg/mL, the “Solubility (pH 4.5)” value stood at 70 μg/mL and the “Solubility (pH 6.8)” value is listed as 51 μg/mL.
The corresponding values for `COC[C@H]1N(c2cccc(-c3cccc(C)c3OCc3cc(C)c4c(c3)CCN(C3CCOC3)C4)n2)C[C@@H]2C[C@@]21C(=O)O` (single isomer, unassigned) [Compound 52] are 38%, 7.92, 110 μg/mL, 93 μg/mL and 76 μg/mL.
Regarding `CO[C@@H]1CN(c2nc(-c3cccc(C)c3OCc3cc(C)c4c(c3)CCN(CC3COCCO3)C4)cs2)CC[C@@H]1C(=O)O` (stereo partly shown) [Compound 176], the “Metabolic stability (Qh %)” value in data set [1] was below 24%. The compound further had a pEC50 in data set [2] of 7.19. In addition, in data set [3], the “Solubility (pH 2.2)” value was 140 μg/mL, the “Solubility (pH 4.5)” value stood at 95 μg/mL and the “Solubility (pH 6.8)” value came to 89 μg/mL.
The like results for `CO[C@@H]1CN(c2cccc(-c3cc(C)ccc3OCc3cc(C)c4c(c3)CCN(C3CCOC3)C4)n2)CC[C@@H]1C(=O)O` (stereo partly shown) [Compound 78] were, in that order, below 24%, 7.59, 110 μg/mL, 91 μg/mL and 63 μg/mL.
The corresponding values for `CO[C@H]1CN(c2nc(-c3cccc(C)c3OCc3cc(C)c4c(c3)CCN(CC3COCCO3)C4)cs2)CC[C@H]1C(=O)O` (single isomer, unassigned) [Compound 169] are below 24%, 7.54, 130 μg/mL, 96 μg/mL and 90 μg/mL.
The corresponding values for `Cc1cc(COc2c(C)cccc2-c2cccc(N3C[C@@H]4C[C@]4(C(=O)O)C3)n2)cc2c1CN(C1CCOC1)CC2` (stereo partly shown) [Compound 26] are below 24%, 8.05, 110 μg/mL, 90 μg/mL and 67 μg/mL.
Usually solubility stands for the concentration that dissolves in the medium under given conditions. Low values mean little dissolved substance, high ones much dissolved substance. Regarding `Cc1nccnc1C(C)N1CCc2c(ccc(COc3ccccc3-c3cccc(N4CC[C@@]5(C(=O)O)C[C@H]5C4)n3)c2C)C1` (stereo partly shown) [Compound 309], the results for the solubility at 24 h in data set [5] (setting [6]), in data set [5] (setting [7]) and in data set [5] (setting [8]) were 163 µg/mL (≈ 276 µM), 116 µg/mL (≈ 197 µM) and 23.8 µg/mL (≈ 40.4 µM), respectively. Also, the “Metabolic stability (Qh %)” value in data set [1] was 54%. This compound gave a pEC50 in data set [2] of 7.74.
The like results for `CO[C@@H]1CN(c2cccc(-c3cc(C)ccc3OCc3ccc4c(c3C)CCN(C3CCOCC3)C4)n2)CC[C@@H]1C(=O)O` [Compound 75] were, in that order, 120 µg/mL (≈ 205 µM), 110 µg/mL (≈ 188 µM), 74 µg/mL (≈ 126 µM), below 24% and 7.82.
The like results for `COC[C@H]1N(c2cccc(-c3cccc(C)c3OCc3cc(F)c4c(c3)CCN(C3CCOCC3)CC4)n2)C[C@@H]2C[C@@]21C(=O)O` [Compound 243] were, in that order, 131 µg/mL (≈ 212 µM), 124 µg/mL (≈ 201 µM), 107 µg/mL (≈ 174 µM), below 24% and 8.52.
